Experiments:
[1] = biological target: mutant C150 HBV capsid protein (C150Bo) (Hepatitis B virus genotype D subtype adw, UniProt P03147, C107A/C48A/C61A/R150C); test: HBV assembly assay (fluorescence quenching in vitro capsid assembly); type: biochemical; settings: at about 10 μM; 50 mM Hepes pH 7.5, 150 mM NaCl, 1 hour at room temperature
[2] = test system: HBV replication in HepG2-2.2.15 cells; test: Inhibition of HBV replication dot-blot assay; type: cell-based; settings: at 10 μM, six days, reduction in HBV DNA levels
Experimental: Compounds active in the HBV assembly assay are tested for their activity and toxicity in cellular assay. In the first anti-viral assay, the ability of compounds to inhibit HBV replication in an HBV-producing hepatoma cell line using the dot-blot method is evaluated.
Briefly, confluent monolayers of HepG2-2.2.15 cells are incubated with complete medium containing various concentrations of a test compound. Three days later, the culture medium is replaced with fresh medium containing the appropriately diluted test compound. Six days following the initial administration of the test compound, the cell culture supernatant is collected, and cell lysis is performed. The samples are applied onto Nylos membranes and DNA is immobilized to the membrane by UV cross-linking. After pre-hybridization, the HBV probe is added and the hybridization is performed overnight. The membranes are exposed to the Kodak films; antiviral activity is calculated from the reduction in HBV DNA levels (EC50). The EC50 for antiviral activity is calculated from the dose response curves of active compounds. Assay performance over time is monitored by the use of the standard positive control compounds ETV, BAY 41-4109, and HAP-1.
Selected compounds were tested for their activity and toxicity in cellular assay. In the first anti-viral assay, the ability of compounds to inhibit HBV replication in an HBV-producing hepatoma cell line using the dot-blot method was evaluated.
Confluent monolayers of HepG2-2.2.15 cells were incubated with complete medium containing various concentrations of a test compound. Three days later, the culture medium was replaced with fresh medium containing the appropriately diluted test compound. Six days following the initial administration of the test compound, the cell culture supernatant was collected, and cell lysis was performed. The samples were applied onto Nylos membranes and DNA was immobilized to the membrane by UV cross-linking. After pre-hybridization, the HBV probe was added and the hybridization was performed overnight. The membranes were exposed to the Kodak films; antiviral activity was calculated from the reduction in HBV DNA levels (EC50). The EC50 for antiviral activity was calculated from the dose response curves of active compounds. Assay performance over time was monitored by the use of the standard positive control compounds ETV, BAY 41-4109, and HAP-1.

Chain of mutant C150 HBV capsid protein (C150Bo) (P03147 whole entry C107A/C48A/C61A/R150C, looked up): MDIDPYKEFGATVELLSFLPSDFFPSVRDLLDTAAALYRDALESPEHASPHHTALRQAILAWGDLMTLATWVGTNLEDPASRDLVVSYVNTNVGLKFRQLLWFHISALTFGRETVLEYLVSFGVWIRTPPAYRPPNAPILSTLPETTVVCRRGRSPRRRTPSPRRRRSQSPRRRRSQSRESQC

Compound	Activity (HBV assembly assay) [1]	Activity in dot-blot-assay [2]
O=C(Nc1ccc(F)c(Cl)c1)c1ccc(F)c(S(=O)(=O)N2CCOCCC(O)C2)c1 (stereo not shown) [Compound 2039]	+ (‘+’ indicates >50% activity at about 10 μM)	+ (‘+’ indicates >50% activity at 10 μM)
O=C(Nc1ccc(F)c(Cl)c1)c1ccc(F)c(S(=O)(=O)N2CCOCC(O)CC2)c1 (stereo not shown) [Compound 2040_E1]	+ (‘+’ indicates >50% activity at about 10 μM)	+ (‘+’ indicates >50% activity at 10 μM)
O=C(Nc1ccc(F)c(Cl)c1)c1ccc(F)c(S(=O)(=O)N2CCOCC(O)CC2)c1 (stereo not shown) [Compound 2040_E2]	+ (‘+’ indicates >50% activity at about 10 μM)	+ (‘+’ indicates >50% activity at 10 μM)
O=C(Nc1ccc(F)c(Cl)c1)c1ccc(F)c(S(=O)(=O)N2CCCCC(O)C(F)C2)c1 (stereo not shown) [Compound 2285_D1]	+ (‘+’ indicates >50% activity at about 10 μM)	+ (‘+’ indicates >50% activity at 10 μM)
O=C(Nc1ccc(F)c(Cl)c1)c1ccc(F)c(S(=O)(=O)N2CCCCC(O)C(F)C2)c1 (stereo not shown) [Compound 2285_D2]	+ (‘+’ indicates >50% activity at about 10 μM)	+ (‘+’ indicates >50% activity at 10 μM)
O=C(Nc1cc(F)c(F)c(F)c1)c1ccc(F)c(S(=O)(=O)N2CCCCCCCC2)c1 [Compound 2435]	+ (‘+’ indicates >50% activity at about 10 μM)	+ (‘+’ indicates >50% activity at 10 μM)
O=C(Nc1ccc(F)c(Cl)c1)c1ccc(F)c(S(=O)(=O)N2CCCCCCCC2)c1 [Compound 2436]	+ (‘+’ indicates >50% activity at about 10 μM)	+ (‘+’ indicates >50% activity at 10 μM)
O=C(Nc1cc(F)c(F)c(F)c1)c1ccc(F)c(S(=O)(=O)N2CCOCC(O)CC2)c1 (stereo not shown) [Compound 2520]	+ (‘+’ indicates >50% activity at about 10 μM)	+ (‘+’ indicates >50% activity at 10 μM)

— patent US10537580B2, “Azocane and azonane derivatives and methods of treating hepatitis B infections” (Novira Therapeutics, Inc., priority 2015, dated 2020)
